Source: ChEMBL document CHEMBL1201862, “PubChem BioAssay data set” (2004)
pIC50: −log10 of the molar value. The source made the active and inactive calls. Rule as the data show it, for most assays here: actives have a measured EC50 and inactives only a lower limit.

Assays:
[1] = target: Peroxisome proliferator-activated receptor gamma/Nuclear receptor coactivator 1 (Homo sapiens, UniProt P37231); assay type: functional;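 also: agonist potency as compounds enhance coactivator SRC-1 recruitment to PPARgamma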
[2] = target: Peroxisome proliferator-activated receptor gamma/Nuclear receptor coactivator 2 (Homo sapiens, UniProt P37231); assay type: functional;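 also: agonist potency for raising coactivator recruitment to the receptor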
[3] = target: Peroxisome proliferator-activated receptor gamma/Nuclear receptor coactivator 3 (Homo sapiens, UniProt P37231); assay type: functional;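 also: agonist potency for raising coactivator recruitment to the receptor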
[4] = target: T1, Protein RecA (Mycobacterium tuberculosis, UniProt P9WHJ3); assay: Fluorescence Cell-Free Homogeneous Dose Retest to Identify Inhibitors of RecA-Intein Splicing Activity. [Related pubchem assays (depositor defined):AID2097, AID2223, AID489010, AID492950]; assay type: functional
T1 sequence (P9WHJ3 whole entry): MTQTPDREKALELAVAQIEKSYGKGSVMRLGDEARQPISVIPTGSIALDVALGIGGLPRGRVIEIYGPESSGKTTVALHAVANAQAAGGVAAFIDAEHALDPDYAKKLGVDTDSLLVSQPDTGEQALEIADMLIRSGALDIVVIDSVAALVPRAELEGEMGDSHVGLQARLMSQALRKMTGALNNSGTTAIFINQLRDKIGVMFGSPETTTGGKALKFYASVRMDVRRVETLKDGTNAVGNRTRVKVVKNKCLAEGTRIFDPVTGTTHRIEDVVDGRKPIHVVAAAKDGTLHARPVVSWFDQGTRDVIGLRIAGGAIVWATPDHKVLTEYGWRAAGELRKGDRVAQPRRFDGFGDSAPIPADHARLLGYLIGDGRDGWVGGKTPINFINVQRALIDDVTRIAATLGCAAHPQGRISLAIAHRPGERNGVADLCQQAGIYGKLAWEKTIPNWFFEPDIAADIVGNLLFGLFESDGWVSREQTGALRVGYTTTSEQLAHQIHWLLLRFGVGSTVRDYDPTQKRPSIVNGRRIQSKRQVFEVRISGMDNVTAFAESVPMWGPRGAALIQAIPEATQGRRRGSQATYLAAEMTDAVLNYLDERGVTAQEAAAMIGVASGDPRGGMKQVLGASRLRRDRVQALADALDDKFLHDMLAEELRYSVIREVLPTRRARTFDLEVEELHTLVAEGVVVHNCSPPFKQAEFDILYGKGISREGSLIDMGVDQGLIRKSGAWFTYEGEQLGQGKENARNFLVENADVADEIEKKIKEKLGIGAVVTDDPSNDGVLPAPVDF

[5] = target: Potassium voltage-gated channel subfamily KQT member 2 (Rattus norvegicus, UniProt O88943, W236L); assay: potentiation of rat KCNQ2 current – cell-based, automated electrophysiology, mechanism study for KCNQ2 potentiator project, dose response (AID 2603); assay type: functional
[6] = target: T2, Replicative DNA helicase DnaB (Mycobacterium tuberculosis, UniProt P9WMR3); assay: DnaB intein splicing inhibitors, dose response, biochemical, cell-free fluorescence (AID 449749); assay type: functional
T2 sequence (P9WMR3 whole entry): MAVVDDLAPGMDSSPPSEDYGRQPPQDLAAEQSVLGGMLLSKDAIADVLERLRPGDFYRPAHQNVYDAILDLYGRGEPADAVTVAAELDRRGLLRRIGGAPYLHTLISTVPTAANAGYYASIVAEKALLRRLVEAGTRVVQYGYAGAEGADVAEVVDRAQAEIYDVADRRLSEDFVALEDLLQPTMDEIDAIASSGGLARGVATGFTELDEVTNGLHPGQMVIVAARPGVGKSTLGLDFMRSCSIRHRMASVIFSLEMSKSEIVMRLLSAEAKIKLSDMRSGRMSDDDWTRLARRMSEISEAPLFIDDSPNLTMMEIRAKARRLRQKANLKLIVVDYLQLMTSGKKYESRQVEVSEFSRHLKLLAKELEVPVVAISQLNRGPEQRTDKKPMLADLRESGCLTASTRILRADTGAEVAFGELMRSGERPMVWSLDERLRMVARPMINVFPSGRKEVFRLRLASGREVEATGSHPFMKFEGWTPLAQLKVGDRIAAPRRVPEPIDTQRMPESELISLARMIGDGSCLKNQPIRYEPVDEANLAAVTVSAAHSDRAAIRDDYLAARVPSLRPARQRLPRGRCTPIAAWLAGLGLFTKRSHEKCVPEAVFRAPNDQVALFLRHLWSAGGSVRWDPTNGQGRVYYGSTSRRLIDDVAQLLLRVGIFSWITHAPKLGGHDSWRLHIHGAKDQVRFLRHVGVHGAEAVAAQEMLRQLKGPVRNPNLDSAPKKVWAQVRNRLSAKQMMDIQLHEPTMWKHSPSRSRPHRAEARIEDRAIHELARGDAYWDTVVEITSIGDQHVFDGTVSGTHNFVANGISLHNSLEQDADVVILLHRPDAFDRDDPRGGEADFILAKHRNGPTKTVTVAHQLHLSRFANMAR

[7] = target: Genome polyprotein (dengue virus type 2, UniProt P29990); assay: flavivirus cap methylation enzyme inhibition – biochemical, confirmation dose response, primary screen (AID 588689); assay type: functional
[8] = DRD fibroblast viability loss – cell-based, non-viral oncogenic, luminescence, dose response (AID 1934); assay type: functional; details: Homo sapiens
[9] = target: Nonstructural protein 1 (Influenza A virus, UniProt Q194T2); assay type: functional, Influenza A virus (A/California/07/2009(H1N1))
[10] = luciferase reporter signal suppression in cells – H4 neuroglioma cells, luminescence, dose response (AID 1990); assay type: functional, cell-based
[11] = target: T3, Zinc finger protein mex-5 (Caenorhabditis elegans, UniProt Q9XUB2); assay: potency of MEX-5 RNA-binding blockers – biochemical, C. elegans, fluorescence polarization, dose response (AID 1960)
T3 sequence (Q9XUB2 whole entry): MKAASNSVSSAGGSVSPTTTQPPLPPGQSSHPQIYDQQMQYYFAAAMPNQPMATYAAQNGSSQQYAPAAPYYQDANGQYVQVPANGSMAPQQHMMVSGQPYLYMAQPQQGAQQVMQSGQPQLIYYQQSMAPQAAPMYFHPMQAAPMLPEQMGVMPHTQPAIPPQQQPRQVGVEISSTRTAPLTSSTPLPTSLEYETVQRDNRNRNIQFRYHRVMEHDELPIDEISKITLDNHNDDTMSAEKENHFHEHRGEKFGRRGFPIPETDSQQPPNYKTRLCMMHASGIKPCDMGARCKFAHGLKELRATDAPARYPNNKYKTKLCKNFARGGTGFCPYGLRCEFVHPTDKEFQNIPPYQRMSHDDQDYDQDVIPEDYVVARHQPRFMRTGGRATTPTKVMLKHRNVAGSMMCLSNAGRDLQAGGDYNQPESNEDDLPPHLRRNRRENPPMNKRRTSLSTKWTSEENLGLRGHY

[12] = target: T4, Beta-galactosidase (Escherichia coli, UniProt Q8VNN2); assay: Dose response counterscreen for EBI2 assay utilizing the enzyme, b-galactosidase.; assay type: functional
[13] = alpha-synuclein stem-loop luciferase translation blockers – H4 neuroglioma cells, luminescence, confirmation (AID 1988); assay type: functional, cell-based
[14] = system: BJ; assay: growth inhibition of engineered Ras-driven BJ cells – cell-based, alamar blue fluorescence, cherrypicked samples, dose response (AID 2631); assay type: functional; details: Homo sapiens;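 also: confirmatory dose-response assay in RAS-dependent BJ fibroblasts engineered with TERT, LT and ST, with cytotoxicity read by fluorescence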
[15] = cells; assay type: functional, cell-based
[16] = system: BJ; assay: cells; assay type: functional, cell-based; details: Homo sapiens
[17] = luciferase reporter signal reduction – luminescence, H4-C neuroglioblastoma cells, dose response (AID 2458); assay type: functional, cell-based;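 also: H4 neuroglioblastoma cells stably carrying a luciferase reporter gene fusion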
[18] = system: BJ; assay: BJ-TERT-LT-ST fibroblast viability loss – cell-based, RAS-independent, luminescence, dose response (AID 1935); assay type: functional; details: Homo sapiens;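 also: BJ fibroblasts immortalized with TERT plus LT and ST oncogenes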
[19] = target: Heat shock protein HSP 90-alpha (Homo sapiens, UniProt P07900); assay type: functional, organism-based
[20] = target: T5, RNA-binding protein pos-1 (Caenorhabditis elegans, UniProt G5EF15); assay: disruptors of C. elegans POS-1 RNA interaction – biochemical, fluorescence polarization, dose response (AID 1964);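 also: purified POS-1 fused to maltose binding protein made in E. coli; potency of compounds blocking POS-1 binding to fluorescent RNA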
T5 sequence (G5EF15 whole entry): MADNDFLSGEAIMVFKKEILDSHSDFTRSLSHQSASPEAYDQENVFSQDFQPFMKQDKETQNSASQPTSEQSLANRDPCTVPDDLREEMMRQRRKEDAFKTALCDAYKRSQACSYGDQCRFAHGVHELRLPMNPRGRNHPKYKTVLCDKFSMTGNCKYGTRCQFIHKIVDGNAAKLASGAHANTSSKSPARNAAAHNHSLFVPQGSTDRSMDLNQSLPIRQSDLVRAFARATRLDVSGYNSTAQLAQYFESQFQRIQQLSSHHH

[21] = Luminescence-based dose response cell-based high throughput screening assay for cytotoxic compounds using the IEC-6 intestinal epithelial cell line. [Related pubchem assays: 1858 (Summary AID.), 1825 (Counterscreen.), 1907 (Confirmation screen.)]; assay type: functional
[22] = target: T6, Kappa-type opioid receptor (Homo sapiens, UniProt P41145); assay type: functional
[23] = target: T4, Beta-galactosidase; assay type: functional
[24] = target: T6, Kappa-type opioid receptor; assay type: functional; remark: listed apart in the source
[25] = alpha-synuclein stem-loop translation blockers – luminescence, H4 neuroglioblastoma cells, dose confirmation, confirmation (AID 2454); assay type: functional, cell-based;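 also: H4 neuroglioblastoma cells carrying an alpha-synuclein 5'UTR luciferase reporter; potency for inhibition of the luciferase signal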
[26] = Luminescence Cell-Based Dose Response HTS to Identify Inhibitors of 5'UTR Stem-Loop Driven Prion Protein mRNA Translation in H4 Neuroglioblastoma Cells. [Related pubchem assays: 1827 (Project Summary), 1813 (Primary HTS)]; assay type: functional
[27] = system: BJ; assay: BJ-TERT fibroblast viability loss – cell-based, RAS-independent, luminescence, dose response (AID 1933); assay type: functional; details: Homo sapiens

T6 sequence (P41145 whole entry): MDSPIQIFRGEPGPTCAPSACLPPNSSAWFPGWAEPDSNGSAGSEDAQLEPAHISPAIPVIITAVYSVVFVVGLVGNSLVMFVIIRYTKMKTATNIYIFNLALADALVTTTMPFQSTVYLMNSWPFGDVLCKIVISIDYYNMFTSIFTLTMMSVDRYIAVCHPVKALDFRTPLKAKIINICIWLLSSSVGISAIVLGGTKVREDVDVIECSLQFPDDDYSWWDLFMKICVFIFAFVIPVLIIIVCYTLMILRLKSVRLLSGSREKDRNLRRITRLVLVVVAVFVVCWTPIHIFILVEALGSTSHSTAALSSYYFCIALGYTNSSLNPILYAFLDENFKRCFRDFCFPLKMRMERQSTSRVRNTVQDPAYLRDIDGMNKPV
Chain of Peroxisome proliferator-activated receptor gamma/Nuclear receptor coactivator 3 (P37231 whole entry): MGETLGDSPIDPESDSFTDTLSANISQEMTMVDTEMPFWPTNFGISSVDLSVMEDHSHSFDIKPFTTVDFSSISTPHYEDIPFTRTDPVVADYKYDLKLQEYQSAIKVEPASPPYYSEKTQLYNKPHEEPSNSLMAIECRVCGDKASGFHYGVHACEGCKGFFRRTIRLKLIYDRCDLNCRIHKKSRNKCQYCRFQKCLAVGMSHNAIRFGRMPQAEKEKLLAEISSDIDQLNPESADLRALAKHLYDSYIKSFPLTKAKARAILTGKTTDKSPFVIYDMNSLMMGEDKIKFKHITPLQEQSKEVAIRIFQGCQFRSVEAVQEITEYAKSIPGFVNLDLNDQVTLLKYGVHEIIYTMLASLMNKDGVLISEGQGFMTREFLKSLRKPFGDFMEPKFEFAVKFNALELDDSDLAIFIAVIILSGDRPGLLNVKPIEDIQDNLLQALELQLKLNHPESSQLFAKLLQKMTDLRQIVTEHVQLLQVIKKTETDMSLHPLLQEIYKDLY
Chain of Peroxisome proliferator-activated receptor gamma/Nuclear receptor coactivator 3 (Q9Y6Q9 whole entry, further chain): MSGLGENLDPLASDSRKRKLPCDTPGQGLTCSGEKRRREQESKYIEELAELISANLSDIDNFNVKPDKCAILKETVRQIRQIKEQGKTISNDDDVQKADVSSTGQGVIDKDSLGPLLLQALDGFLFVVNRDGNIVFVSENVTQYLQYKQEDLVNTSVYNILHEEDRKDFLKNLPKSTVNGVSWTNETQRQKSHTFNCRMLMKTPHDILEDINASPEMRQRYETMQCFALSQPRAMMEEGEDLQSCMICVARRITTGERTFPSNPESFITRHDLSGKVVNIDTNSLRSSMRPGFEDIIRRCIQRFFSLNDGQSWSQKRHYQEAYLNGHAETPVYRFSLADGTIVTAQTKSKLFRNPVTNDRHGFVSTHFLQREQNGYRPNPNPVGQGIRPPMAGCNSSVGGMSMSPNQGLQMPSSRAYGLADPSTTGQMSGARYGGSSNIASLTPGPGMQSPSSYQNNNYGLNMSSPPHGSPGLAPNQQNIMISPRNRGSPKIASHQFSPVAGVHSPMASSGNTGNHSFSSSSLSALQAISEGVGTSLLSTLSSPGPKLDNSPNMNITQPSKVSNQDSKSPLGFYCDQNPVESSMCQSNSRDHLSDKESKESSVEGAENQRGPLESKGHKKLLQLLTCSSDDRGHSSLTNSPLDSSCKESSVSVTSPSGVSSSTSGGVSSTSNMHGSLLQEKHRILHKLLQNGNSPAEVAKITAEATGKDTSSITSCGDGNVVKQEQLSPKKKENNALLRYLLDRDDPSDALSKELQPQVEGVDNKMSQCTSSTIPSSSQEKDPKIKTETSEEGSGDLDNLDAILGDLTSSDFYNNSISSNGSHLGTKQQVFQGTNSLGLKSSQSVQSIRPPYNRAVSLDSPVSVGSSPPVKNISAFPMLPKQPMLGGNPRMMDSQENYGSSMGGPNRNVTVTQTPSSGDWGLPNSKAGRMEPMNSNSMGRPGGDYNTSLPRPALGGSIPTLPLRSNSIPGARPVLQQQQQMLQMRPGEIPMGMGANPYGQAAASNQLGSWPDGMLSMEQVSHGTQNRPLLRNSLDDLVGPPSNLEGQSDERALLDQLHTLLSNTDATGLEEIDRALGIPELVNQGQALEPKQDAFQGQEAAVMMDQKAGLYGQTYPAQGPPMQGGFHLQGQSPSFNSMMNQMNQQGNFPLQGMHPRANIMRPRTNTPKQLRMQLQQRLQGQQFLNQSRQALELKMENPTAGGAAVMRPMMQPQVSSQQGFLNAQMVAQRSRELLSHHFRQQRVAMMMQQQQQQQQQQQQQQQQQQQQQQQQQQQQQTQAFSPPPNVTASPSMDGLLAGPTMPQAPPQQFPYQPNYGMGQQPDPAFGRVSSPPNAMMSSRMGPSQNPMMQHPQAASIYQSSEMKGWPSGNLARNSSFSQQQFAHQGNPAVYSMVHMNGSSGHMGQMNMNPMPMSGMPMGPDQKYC
Chain of Peroxisome proliferator-activated receptor gamma/Nuclear receptor coactivator 1 (P37231 whole entry): as the sequence (P37231 whole entry) above
Chain of Peroxisome proliferator-activated receptor gamma/Nuclear receptor coactivator 1 (Q15788 whole entry, further chain): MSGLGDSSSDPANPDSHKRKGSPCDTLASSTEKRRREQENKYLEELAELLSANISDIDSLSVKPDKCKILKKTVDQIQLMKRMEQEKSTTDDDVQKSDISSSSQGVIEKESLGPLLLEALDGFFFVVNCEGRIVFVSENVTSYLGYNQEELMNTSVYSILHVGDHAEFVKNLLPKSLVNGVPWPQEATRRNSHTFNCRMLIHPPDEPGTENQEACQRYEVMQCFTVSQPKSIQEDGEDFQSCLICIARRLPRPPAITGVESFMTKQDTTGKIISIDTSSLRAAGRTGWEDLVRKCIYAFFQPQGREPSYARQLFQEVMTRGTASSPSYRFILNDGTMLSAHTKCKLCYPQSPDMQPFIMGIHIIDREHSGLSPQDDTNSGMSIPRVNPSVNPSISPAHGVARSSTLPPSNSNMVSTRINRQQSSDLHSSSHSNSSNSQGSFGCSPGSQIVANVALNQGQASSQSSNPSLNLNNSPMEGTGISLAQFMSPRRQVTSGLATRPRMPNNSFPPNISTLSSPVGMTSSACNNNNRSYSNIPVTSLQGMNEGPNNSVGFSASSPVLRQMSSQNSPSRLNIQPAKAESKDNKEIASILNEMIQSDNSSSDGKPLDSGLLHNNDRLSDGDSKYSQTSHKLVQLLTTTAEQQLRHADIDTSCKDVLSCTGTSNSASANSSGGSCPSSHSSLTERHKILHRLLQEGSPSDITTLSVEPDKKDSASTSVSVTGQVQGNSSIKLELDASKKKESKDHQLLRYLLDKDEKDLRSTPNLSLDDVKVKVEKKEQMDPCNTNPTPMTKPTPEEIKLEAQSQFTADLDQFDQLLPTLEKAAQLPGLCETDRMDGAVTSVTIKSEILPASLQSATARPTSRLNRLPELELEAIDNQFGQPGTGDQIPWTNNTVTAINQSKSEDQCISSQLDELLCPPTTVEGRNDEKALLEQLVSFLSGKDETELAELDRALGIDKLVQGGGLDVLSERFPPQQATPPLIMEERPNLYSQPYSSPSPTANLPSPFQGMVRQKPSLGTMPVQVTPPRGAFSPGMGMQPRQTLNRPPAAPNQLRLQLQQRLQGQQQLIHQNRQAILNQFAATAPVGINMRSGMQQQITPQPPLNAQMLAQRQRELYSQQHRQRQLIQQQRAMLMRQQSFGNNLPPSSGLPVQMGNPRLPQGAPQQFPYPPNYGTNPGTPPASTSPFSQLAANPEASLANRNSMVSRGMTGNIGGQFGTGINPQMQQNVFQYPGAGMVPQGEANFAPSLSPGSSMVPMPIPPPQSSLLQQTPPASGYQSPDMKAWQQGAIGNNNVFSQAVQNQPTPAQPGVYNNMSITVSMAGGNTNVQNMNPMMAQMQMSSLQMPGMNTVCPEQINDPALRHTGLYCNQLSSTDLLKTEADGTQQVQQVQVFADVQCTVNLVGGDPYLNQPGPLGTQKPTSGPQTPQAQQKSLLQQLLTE
Chain of Nonstructural protein 1 (Q194T2 whole entry): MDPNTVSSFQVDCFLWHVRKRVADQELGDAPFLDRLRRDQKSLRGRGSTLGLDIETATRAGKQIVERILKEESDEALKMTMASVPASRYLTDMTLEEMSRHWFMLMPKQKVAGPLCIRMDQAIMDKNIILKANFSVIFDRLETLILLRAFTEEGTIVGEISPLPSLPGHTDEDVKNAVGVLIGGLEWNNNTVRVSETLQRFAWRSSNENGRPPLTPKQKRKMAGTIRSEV

With `O=c1cc(Cn2ccnc2)c2cc3c(cc2o1)CCC3` the EC50 [1] was > 79.4 µM (not active), the EC50 [2] was > 79.4 µM (not active) and the EC50 [3] was > 79.4 µM (not active).

With `Cc1oc2cc([N+](=O)[O-])c(O)c([N+](=O)[O-])c2c1C(=O)c1ccc(Cl)cc1` the EC50 [4] was 10.4 µM (active), the EC50 [5] was 555 µM (active) and the AC50 [6] was 4.12 µM (active). For the same compound, the IC50 [7] was 61.9 µM (active).

For `C/C(=N\Nc1ncnc2sc(C)c(C)c12)c1ccccn1`, the EC50 [8] was 2.02 µM (inconclusive), the IC50 [9] was 19.3 µM (active) and the EC50 [10] was 0.244 µM (active). The EC50 [11] was 46.7 µM (inconclusive), the IC50 [12] was > 80 µM (inactive) and the EC50 [13] was < 0.1 µM (active). For the same compound, the EC50 [14] was < 0.104 µM (active), the EC50 [15] was 0.472 µM (active) and the EC50 [16] was 0.966 µM (inconclusive). For the same compound, the EC50 [17] was 0.222 µM (active), the EC50 [18] was 0.754 µM (inconclusive) and the AC50 [19] was 2.42 µM (active). The EC50 [20] was 23.3 µM (inconclusive), the IC50 [21] was 0.0762 µM (active) and the pIC50 [22] was less than 4.49. For the same compound, the EC50 [23] was > 31.5 µM (inactive), the IC50 [24] was > 31.5 µM (inactive) and the EC50 [25] was 0.378 µM (active). The EC50 [26] was < 0.1 µM (active) and the EC50 [27] was 0.711 µM (inconclusive).

In the case of `O=C(CCSCc1ccccc1Cl)NCc1cccs1`, the EC50 [1] was > 79.4 µM (not active), the EC50 [2] was > 79.4 µM (not active) and the EC50 [3] was > 79.4 µM (not active).
